Measured values: PubChem BioAssay AID504479 (NMMLSC, 2011)
Activity calls are given as the source filed them.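 Rule for the calls: active = GFP ratio vs DMSO below 0.65 in a strain, using the primary screen cutoff set for that strain's protein target; inactive = the rest.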

What was measured:
Assay in all cases: GFP reporter expression in TORC1-bypass yeast, mechanism study for yeast TOR pathway modulator project, S. cerevisiae, TORC1 bypass vs wild-type strains (AID 504479)
Settings in all cases: fluorescence ratio vs DMSO, at 10 µM
YKL103C = test system: YKL103C
YNL142W = test system: YNL142W
YCR005C = test system: YCR005C
YBR084C-A = test system: YBR084C-A
YCL025C = test system: YCL025C
BY4741 = test system: BY4741
[1] = LAP4-GFP in TORC1 bypass strain, stronger effect = higher value
[2] = MEP2-GFP in TORC1 bypass strain, stronger effect = higher value
[3] = CIT2-GFP in TORC1 bypass strain, stronger effect = higher value
[4] = RPL19A-GFP in TORC1 bypass strain, stronger effect = lower value
[5] = AGP1-GFP in TORC1 bypass strain, stronger effect = higher value

## COc1ccc([N+](=O)[O-])c(S(=O)(=O)c2ccc(Cl)cc2)n1
YKL103C; [1]
  GFP ratio vs DMSO: 1.92
YKL103C
  GFP ratio vs DMSO: 2.84
YNL142W; [2]
  GFP ratio vs DMSO: 1.01
YNL142W
  GFP ratio vs DMSO: 1.24 (inactive)
YCR005C; [3]
  GFP ratio vs DMSO: 0.761
YCR005C
  GFP ratio vs DMSO: 0.9 (inactive)
YBR084C-A; [4]
  GFP ratio vs DMSO: 0.937
YBR084C-A
  GFP ratio vs DMSO: 0.829 (inactive)
YCL025C; [5]
  GFP ratio vs DMSO: 0.905
YCL025C
  GFP ratio vs DMSO: 1.18 (inactive)
BY4741
  GFP ratio vs DMSO: 1.04 (inactive)

## O=C(OCn1ncc(Br)c(Br)c1=O)c1c(F)cccc1F
YKL103C; [1]
  GFP ratio vs DMSO: 1.37
YKL103C
  GFP ratio vs DMSO: 1.86
YNL142W; [2]
  GFP ratio vs DMSO: 0.876
YNL142W
  GFP ratio vs DMSO: 0.897 (inactive)
YCR005C; [3]
  GFP ratio vs DMSO: 0.891
YCR005C
  GFP ratio vs DMSO: 1.02 (inactive)
YBR084C-A; [4]
  GFP ratio vs DMSO: 1.05
YBR084C-A
  GFP ratio vs DMSO: 1 (inactive)
YCL025C; [5]
  GFP ratio vs DMSO: 0.715
YCL025C
  GFP ratio vs DMSO: 0.903 (inactive)
BY4741
  GFP ratio vs DMSO: 0.824 (inactive)

## O=C(OCn1ncc(Br)c(Br)c1=O)c1ccc(F)cc1
YKL103C; [1]
  GFP ratio vs DMSO: 1.67
YKL103C
  GFP ratio vs DMSO: 2.44
YNL142W; [2]
  GFP ratio vs DMSO: 0.918
YNL142W
  GFP ratio vs DMSO: 1.03 (inactive)
YCR005C; [3]
  GFP ratio vs DMSO: 0.803
YCR005C
  GFP ratio vs DMSO: 1.06 (inactive)
YBR084C-A; [4]
  GFP ratio vs DMSO: 1.06
YBR084C-A
  GFP ratio vs DMSO: 1.03 (inactive)
YCL025C; [5]
  GFP ratio vs DMSO: 0.766
YCL025C
  GFP ratio vs DMSO: 1.02 (inactive)
BY4741
  GFP ratio vs DMSO: 0.853 (inactive)

## O=C(CCc1ccccc1)NNC(=S)NC(=O)c1ccccc1
YKL103C; [1]
  GFP ratio vs DMSO: 1.88
YKL103C
  GFP ratio vs DMSO: 3.08
YNL142W; [2]
  GFP ratio vs DMSO: 1.28
YNL142W
  GFP ratio vs DMSO: 1.3 (inactive)
YCR005C; [3]
  GFP ratio vs DMSO: 0.847
YCR005C
  GFP ratio vs DMSO: 1.04 (inactive)
YBR084C-A; [4]
  GFP ratio vs DMSO: 1.33
YBR084C-A
  GFP ratio vs DMSO: 1.31 (inactive)
YCL025C; [5]
  GFP ratio vs DMSO: 0.882
YCL025C
  GFP ratio vs DMSO: 1.09 (inactive)
BY4741
  GFP ratio vs DMSO: 1.32 (inactive)

## CC(=O)c1ccc(N2CCN(C(=O)c3ccc(Br)cc3)CC2)c(F)c1
YKL103C; [1]
  GFP ratio vs DMSO: 1.27
YKL103C
  GFP ratio vs DMSO: 1.94
YNL142W; [2]
  GFP ratio vs DMSO: 1.25
YNL142W
  GFP ratio vs DMSO: 1.3 (inactive)
YCR005C; [3]
  GFP ratio vs DMSO: 1.12
YCR005C
  GFP ratio vs DMSO: 1.85
YBR084C-A; [4]
  GFP ratio vs DMSO: 1.33
YBR084C-A
  GFP ratio vs DMSO: 1.28 (inactive)
YCL025C; [5]
  GFP ratio vs DMSO: 1.42
YCL025C
  GFP ratio vs DMSO: 1.17 (inactive)
BY4741
  GFP ratio vs DMSO: 1.18 (inactive)

## O=S(=O)(CCN(CCS(=O)(=O)C(F)(F)F)CC1CCCO1)C(F)(F)F (stereo unspecified)
YKL103C; [1]
  GFP ratio vs DMSO: 1.2
YKL103C
  GFP ratio vs DMSO: 1.85
YNL142W; [2]
  GFP ratio vs DMSO: 0.942
YNL142W
  GFP ratio vs DMSO: 0.986 (inactive)
YCR005C; [3]
  GFP ratio vs DMSO: 1.29
YCR005C
  GFP ratio vs DMSO: 1.41 (inactive)
YBR084C-A; [4]
  GFP ratio vs DMSO: 1.07
YBR084C-A
  GFP ratio vs DMSO: 1.05 (inactive)
YCL025C; [5]
  GFP ratio vs DMSO: 0.817
YCL025C
  GFP ratio vs DMSO: 0.958 (inactive)
BY4741
  GFP ratio vs DMSO: 0.958 (inactive)

## CN1CCN(C(c2ccc(C(F)(F)F)cc2)c2ccc3cccnc3c2O)CC1 (stereo unspecified)
YKL103C; [1]
  GFP ratio vs DMSO: 1.29
YKL103C
  GFP ratio vs DMSO: 1.58
YNL142W; [2]
  GFP ratio vs DMSO: 0.978
YNL142W
  GFP ratio vs DMSO: 0.993 (inactive)
YCR005C; [3]
  GFP ratio vs DMSO: 0.633
YCR005C
  GFP ratio vs DMSO: 0.641 (inactive)
YBR084C-A; [4]
  GFP ratio vs DMSO: 0.96
YBR084C-A
  GFP ratio vs DMSO: 0.85 (inactive)
YCL025C; [5]
  GFP ratio vs DMSO: 0.842
YCL025C
  GFP ratio vs DMSO: 0.994 (inactive)
BY4741
  GFP ratio vs DMSO: 0.792 (inactive)

## CC(C)(C)C(=O)NC(=S)NNC(=O)c1ccc(-c2ccccc2)cc1
YKL103C; [1]
  GFP ratio vs DMSO: 1.47
YKL103C
  GFP ratio vs DMSO: 2.48
YNL142W; [2]
  GFP ratio vs DMSO: 1.27
YNL142W
  GFP ratio vs DMSO: 1.51 (inactive)
YCR005C; [3]
  GFP ratio vs DMSO: 0.935
YCR005C
  GFP ratio vs DMSO: 1.37 (inactive)
YBR084C-A; [4]
  GFP ratio vs DMSO: 1.2
YBR084C-A
  GFP ratio vs DMSO: 1.25 (inactive)
YCL025C; [5]
  GFP ratio vs DMSO: 1.03
YCL025C
  GFP ratio vs DMSO: 1.07 (inactive)
BY4741
  GFP ratio vs DMSO: 1.36 (inactive)

## CCCOc1ccc(C(=O)NNC(=S)NC(=O)CC)cc1
YKL103C; [1]
  GFP ratio vs DMSO: 1.92
YKL103C
  GFP ratio vs DMSO: 2.96
YNL142W; [2]
  GFP ratio vs DMSO: 1.3
YNL142W
  GFP ratio vs DMSO: 1.24 (inactive)
YCR005C; [3]
  GFP ratio vs DMSO: 0.905
YCR005C
  GFP ratio vs DMSO: 0.994 (inactive)
YBR084C-A; [4]
  GFP ratio vs DMSO: 1.36
YBR084C-A
  GFP ratio vs DMSO: 1.33 (inactive)
YCL025C; [5]
  GFP ratio vs DMSO: 0.969
YCL025C
  GFP ratio vs DMSO: 1.17 (inactive)
BY4741
  GFP ratio vs DMSO: 1.32 (inactive)

## CC(=O)SC(C[N+](=O)[O-])c1cn(C(C)=O)c2ccccc12 (stereo unspecified)
YKL103C; [1]
  GFP ratio vs DMSO: 1.4
YKL103C
  GFP ratio vs DMSO: 1.8
YNL142W; [2]
  GFP ratio vs DMSO: 0.918
YNL142W
  GFP ratio vs DMSO: 0.743 (inactive)
YCR005C; [3]
  GFP ratio vs DMSO: 0.839
YCR005C
  GFP ratio vs DMSO: 0.9 (inactive)
YBR084C-A; [4]
  GFP ratio vs DMSO: 1.04
YBR084C-A
  GFP ratio vs DMSO: 1.18 (inactive)
YCL025C; [5]
  GFP ratio vs DMSO: 0.739
YCL025C
  GFP ratio vs DMSO: 0.805 (inactive)
BY4741
  GFP ratio vs DMSO: 0.941 (inactive)

## CC(Oc1ccc(Cl)cc1)C(=O)NNC(=S)NC(=O)c1ccco1 (stereo unspecified)
YKL103C; [1]
  GFP ratio vs DMSO: 1.7
YKL103C
  GFP ratio vs DMSO: 2.67
YNL142W; [2]
  GFP ratio vs DMSO: 1.2
YNL142W
  GFP ratio vs DMSO: 1.48 (inactive)
YCR005C; [3]
  GFP ratio vs DMSO: 0.788
YCR005C
  GFP ratio vs DMSO: 0.971 (inactive)
YBR084C-A; [4]
  GFP ratio vs DMSO: 1.25
YBR084C-A
  GFP ratio vs DMSO: 1.15 (inactive)
YCL025C; [5]
  GFP ratio vs DMSO: 0.847
YCL025C
  GFP ratio vs DMSO: 0.99 (inactive)
BY4741
  GFP ratio vs DMSO: 1.44 (inactive)
